Measurements reported in publication PMC10937676, “Targeting the NTSR2/TrkB oncogenic pathway in chronic lymphocytic leukemia” (Scientific Reports, 2024).

Columns and labels:
[1] = test system: AKT; experiment: Immunoblot, relative phosphorylation level of AKT in CLL-B cells; assay type: cell-based, human; conditions: CLL-B cells from 10 patients, overnight, 10 µM
Protocol: (§1) Figure 5 The peptide inhibits kinase phosphorylation. CLL-B cells from 10 patients were incubated overnight, with or without 10 µM of TAT-Pep. Whole cell lysates were then prepared, and 10 µg of proteins were immunoblotted to assess the following parameters. (A) Relative phosphorylation level of SRC. (B) Relative phosphorylation level of AKT. (C) Relative phosphorylation level of LYN. (D) Relative phosphorylation level of BTK. (E) Relative phosphorylation level of all tyrosine-phosphorylated proteins.
(§2) Whole cell lysate proteins were extracted using RIPA buffer (Sigma-Aldrich) and sonication (VibraCell™). Plasma membrane proteins were recovered by using the Plasma Membrane Protein Extraction Kit (Abcam) according to the manufacturer’s instructions. A list of the antibodies used for immunoblotting is available in Supplementary Table 2. Bands were quantitatively assessed by densitometry using Fiji software. To evaluate the level of interaction of NTSR2 and TRKB we normalized the density of the TRKB bands by the density of the NTSR2 bands to obtain the relative amount of TRKB co-precipitated through NTSR2.

[2] = test system: LYN; experiment: Immunoblot, relative phosphorylation level of LYN in CLL-B cells; assay type: cell-based, human; conditions: CLL-B cells from 10 patients, overnight, 10 µM
Protocol: as §1, §2

[3] = test system: Bruton Tyrosine Kinase (BTK); experiment: Immunoblot, relative phosphorylation level of BTK in CLL-B cells; assay type: cell-based, human; conditions: CLL-B cells from 10 patients, overnight, 10 µM
Protocol: as §1, §2

[4] = test system: all tyrosine-phosphorylated proteins; experiment: Immunoblot, relative phosphorylation level of all tyrosine-phosphorylated proteins in CLL-B cells; assay type: cell-based, human; conditions: CLL-B cells from 10 patients, overnight, 10 µM
Protocol: as §1, §2

[5] = test system: BCL-XL; experiment: Immunoblot, relative level of anti-apoptotic protein BCL-XL in CLL-B cells; assay type: cell-based, human; conditions: CLL-B cells from 10 patients, overnight, 10 µM
Excerpt: (§3) Concerning anti-apoptotic protein expression, a decrease in anti-apoptotic proteins BCL-2; BCL-XL and MCL-1 was observed after TAT-Pep treatment of CLL-B cells, possibly as a consequence of the SRC kinase inactivation (Fig. 6A–C). To unveil whether the regulation mechanism behind the observed modifications was transcriptional or post-transcriptional, we evaluated the mRNA levels of all three anti-apoptotic proteins following peptide treatment. […] To further underline that the induction of cell death following TAT-Pep treatment involved apoptosis regulation pathways, we used B cells from six CLL patients and stained them with Annexin V in both TAT-Pep treated and untreated conditions. […]
(§4) Figure 6 The peptide lowers anti-apoptotic proteins levels. […] CLL-B cells from 12 patients were incubated overnight, with or without 10 µM of TAT-Pep, subsequently RNA was extracted from cell lysates and mRNA levels of BCL-2 (D); BCL-XL (E) and MCL-1 (F) were evaluated using RTqPCR; 18S was used as a housekeeping gene. (G) Increased concentrations (0 to 30 µM) of TAT-Pep were incubated with 20,000 CLL-B, and the number of Annexin V-positive cells was measured using the Incucyte live-cell imaging device. Fluorescence was monitored for 48 h. […] The ‘Green Object Count/Phase Object Count’ ratio was determined using the Incucyte analysis software to obtain the percentage of apoptotic cells. […]

[6] = test system: BCL-2 mRNA; experiment: RTqPCR, mRNA level of BCL-2 in CLL-B cells; assay type: cell-based, human; conditions: CLL-B cells from 12 patients, overnight, 10 µM, 18S housekeeping gene
Excerpt: as §3, §4

[7] = test system: MCL-1 mRNA; experiment: RTqPCR, mRNA level of MCL-1 in CLL-B cells; assay type: cell-based, human; conditions: CLL-B cells from 12 patients, overnight, 10 µM, 18S housekeeping gene
Excerpt: as §3, §4

[8] = test system: CLL-B cells; experiment: Apoptosis of CLL-B cells, Annexin V staining (Incucyte); assay type: cell-based, human; conditions: 20,000 CLL-B cells, 6 patients, technical triplicates, Annexin V Dye, 48 h, area under the curve
Excerpt: Concerning anti-apoptotic protein expression, a decrease in anti-apoptotic proteins BCL-2; BCL-XL and MCL-1 was observed after TAT-Pep treatment of CLL-B cells, possibly as a consequence of the SRC kinase inactivation (Fig. 6A–C). To unveil whether the regulation mechanism behind the observed modifications was transcriptional or post-transcriptional, we evaluated the mRNA levels of all three anti-apoptotic proteins following peptide treatment. […] To further underline that the induction of cell death following TAT-Pep treatment involved apoptosis regulation pathways, we used B cells from six CLL patients and stained them with Annexin V in both TAT-Pep treated and untreated conditions. As shown on Fig. 6G, TAT-Pep treatment did induce apoptosis in CLL-B cells. […] However, at 5 µM, there was already a 1.9-fold increase in cell death compared to the control. It progressively rose to a 2.5-fold increase and a 3.6-fold increase for 10 µM and 30 µM, respectively.
Figure 6 The peptide lowers anti-apoptotic proteins levels. CLL-B cells from 10 patients were incubated overnight, with or without 10 µM of TAT-Pep. Whole cell lysates were then prepared, and 10 µg of proteins were immunoblotted to assess the following parameters. (A) Relative level of the anti-apoptotic protein BCL-2 in B-CLL. (B) Relative level of the anti-apoptotic protein BCL-XL and (C) relative level of the anti-apoptotic protein MCL-1. CLL-B samples from ten different patients were utilized for the analysis. CLL-B cells from 12 patients were incubated overnight, with or without 10 µM of TAT-Pep, subsequently RNA was extracted from cell lysates and mRNA levels of BCL-2 (D); BCL-XL (E) and MCL-1 (F) were evaluated using RTqPCR; 18S was used as a housekeeping gene. (G) Increased concentrations (0 to 30 µM) of TAT-Pep were incubated with 20,000 CLL-B, and the number of Annexin V-positive cells was measured using the Incucyte live-cell imaging device. Fluorescence was monitored for 48 h. […] The ‘Green Object Count/Phase Object Count’ ratio was determined using the Incucyte analysis software to obtain the percentage of apoptotic cells. The area under the curve for each condition was then calculated, and they were compared using a t-test.
Cell viability and survival were monitored using the IncucyteS3 system (Sartorius), a live-cell imaging device enabling the tracking of fluorescence over set periods of time[41],[42]. […] In all analyses, the ‘Green Object Count/Phase Object Count’ ratio was determined using the Incucyte analysis software to obtain the percentage of dead cells. The area under the curve for each condition was then calculated, and they were compared using a t-test. To evaluate proliferation, phase confluence was determined and normalized with t = 0 h using the Incucyte analysis software.

[9] = target: NTSR2/TRKB interaction (Homo sapiens, UniProt Q16620); experiment: NTSR2-AviTag pull-down, inhibition of the NTSR2/TRKB interaction in transfected HEK293T cells; assay type: cell-based; parameters: host or cells: HEK293T
Excerpt: Nuclei were stained with DAPI (blue). […] (C) Representative immunoblot of 3 independent experiments. […] Nuclei were stained with DAPI (blue). Magnification × 40.
The amount of co-immunoprecipitated TRKB protein was detected by immunoblot (Fig. 4C,D). […] This is associated to the low penetration of the peptide in the cells.
Vectors used were constructed by Vector Builder. The vector builder IDs are VB201022-1029qpx (BirA); VB201022-1027yza (TRKB-NTSR2) and VB201022-1012yjb (TRKB-NTSR2-AviTag™). 500 000 HEK293T cells were seeded and transfected the following day with 3 µg of plasmid using jetPEI (Polyplus Transfection). They were then treated with 40 µM biotin and with or without […] of BDNF (ABclonal).
Proteins were extracted using RIPA buffer (Sigma-Aldrich) and sonication (VibraCell™). They were then incubated with 30 μL of streptavidin-functionalized magnetic beads (Invitrogen) for 2 h at 4 °C under rotation. For western blot analysis, the magnetic beads were washed 4 times with cold PBS and the fixed proteins were eluted in 4 × Laemmli buffer supplemented with 10% β-mercaptoethanol and denatured at 95 °C for 5 min.
Whole cell lysate proteins were extracted using RIPA buffer (Sigma-Aldrich) and sonication (VibraCell™). […] Bands were quantitatively assessed by densitometry using Fiji software. […]

Sequence of NTSR2/TRKB interaction (Q16620 32-822): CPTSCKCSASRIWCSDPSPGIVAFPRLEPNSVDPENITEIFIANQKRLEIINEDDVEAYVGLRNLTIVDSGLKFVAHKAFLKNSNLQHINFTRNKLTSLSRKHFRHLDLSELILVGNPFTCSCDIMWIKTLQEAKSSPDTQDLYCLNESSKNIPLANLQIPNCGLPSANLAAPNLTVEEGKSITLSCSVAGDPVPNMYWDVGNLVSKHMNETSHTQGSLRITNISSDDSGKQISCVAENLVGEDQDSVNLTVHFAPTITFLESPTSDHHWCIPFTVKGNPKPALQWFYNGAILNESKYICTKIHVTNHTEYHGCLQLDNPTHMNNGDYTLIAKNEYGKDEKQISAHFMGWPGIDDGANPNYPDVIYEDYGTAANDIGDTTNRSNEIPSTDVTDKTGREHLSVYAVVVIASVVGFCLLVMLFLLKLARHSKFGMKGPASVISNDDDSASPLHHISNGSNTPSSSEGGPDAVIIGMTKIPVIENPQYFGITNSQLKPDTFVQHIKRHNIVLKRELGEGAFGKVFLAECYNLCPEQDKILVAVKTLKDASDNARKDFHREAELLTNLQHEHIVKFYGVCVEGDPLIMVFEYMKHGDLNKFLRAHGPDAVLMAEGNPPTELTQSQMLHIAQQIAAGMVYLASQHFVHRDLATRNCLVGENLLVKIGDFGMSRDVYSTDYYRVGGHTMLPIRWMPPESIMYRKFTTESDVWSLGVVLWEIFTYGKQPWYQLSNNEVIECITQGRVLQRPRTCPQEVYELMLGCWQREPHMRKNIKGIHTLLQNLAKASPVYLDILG

For “GRKKRRQRRRPPQNAVSSSFRKLFLEAVSSLCGEHHPMKRLPPKPQSPTLMDTASGFGDPPETRT [TAT-Pep]”, the “AKT phosphorylation (in words)” value [1] was “did not observe any variation”, the “LYN phosphorylation (in words)” value [2] was “significant decrease in phosphorylation” and the “BTK phosphorylation (in words)” value [3] was “did not affect BTK phosphorylation”. For the same sequence, the “global level of tyrosine phosphorylation (in words)” value [4] was “general decrease in tyrosine phosphorylation”, the “level of anti-apoptotic protein BCL-XL (in words)” value [5] was “decrease” and the “mRNA level of BCL-2 (in words)” value [6] was “significantly lowered expression”. The “mRNA level of MCL-1 (in words)” value [7] was “significantly lowered expression”, the “Annexin V-positive cells compared to the control (in words)” value ([8]; 2.5 µM) was “no significant cytotoxicity was observed” and the “increase in cell death (Annexin V-positive cells) compared to the control” value (shortened to “increase in cell death”) ([8]; 5 µM) was 1.9 fold. For the same sequence, the “increase in cell death” value ([8]; 10 µM) was 2.5 fold, the “increase in cell death” value ([8]; 30 µM) was 3.6 fold and the “amount of co-immunoprecipitated TRKB protein (TRKB/NTSR2 ratio, in words)” value ([9]; transfected HEK293T cells incubated overnight with 10 µM peptide, streptavidin pull-down, immunoblot densitometry, 3 independent experiments) was “significant decrease”. The “effect of BDNF addition on the inhibited NTSR2/TRKB interaction (in words)” value ([9]; transfected HEK293T cells, 10 µM peptide overnight, BDNF in the culture medium) was “did not restore the interaction”.
